Our source for the EC50 values is patent US8642585B2, “Indanyloxydihydrobenzofuranylacetic acids” (Boehringer Ingelheim International GmbH, priority 2012, dated 2014).

Molecules are shown by their SMILES.

Test [1] deals with T1, human GPR40 receptor (Homo sapiens, UniProt O14842). The test can be described thus: Assay I: IP1 accumulation (IPOne HTRF) in 1321N1 cells stably expressing human GPR40. The conditions noted are these: 1321N1 cells expressing human GPR40, stimulation 1 hour at 37° C., 10% CO2, final LiCl 50 mM. It is filed as cell-based. How it is done: IP1 accumulation measurements using the IPOne assay system—1321N1 cells stably expressing human GPR40 receptor (Euroscreen, Belgium) are seeded 24 h before the assay in black clear-bottom collagen-coated 384-well plates in culture medium containing 10% FCS, 1% Na-Pyruvate and 400 μg/mL G418. IP1 is assayed according to the Manufacturers description (Cisbio Bioassays, France). In brief, the assay is started by substitution of the culture medium by stimulation buffer (Hepes 10 mM, CaCl2 1 mM, MgCl2 0.5 mM, KCl 4.2 mM, NaCl 146 mM and glucose 5.5 mM, pH 7.4) without LiCl. Cells are stimulated for 1 hour at 37° C., 10% CO2 by addition of the compounds that are diluted in stimulation buffer containing LiCl yielding a final LiCl concentration of 50 mM. Assays are stopped by adding HTRF-conjugates (IP1-d2 and Anti-IP1 cryptate Tb) and lysis buffer, provided by the manufacturer. After an incubation time of 1 hour at room temperature plates are measured using an EnVision™, Perkin Elmer. The obtained fluorescence ratios at 665/615 nM are then used to calculate the pEC50 values using GraphPad Prism 5 (Graphpad Software Inc, USA) by interpolation using an IP1 reference curve and subsequent sigmoidal curve fitting allowing for a variable hill slope.
(TR-FRET usually uses a lanthanide donor and a delayed reading to cut background.)

The target in test [2] is T1, human GPR40 receptor. The experiment in a line: Assay II: IP1 accumulation (IPOne HTRF) in 1321N1 cells stably expressing human GPR40. The class given is cell-based. To be noted: 1321N1 cells expressing human GPR40, stimulation 1 h at 37° C., 5% CO2, LiCl 50 mM. In short, it runs like this:
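1321N1 cells stably expressing human GPR40, seeded 24 h earlier, were stimulated with compound for 1 h at 37 °C in LiCl (50 mM) buffer, pH 7.4. IP1 measured by HTRF (665/615 ratio) after lysis and 1 h room temperature; pEC50 via IP1 reference curve and variable-slope sigmoidal fit.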

T1 sequence (O14842 whole entry): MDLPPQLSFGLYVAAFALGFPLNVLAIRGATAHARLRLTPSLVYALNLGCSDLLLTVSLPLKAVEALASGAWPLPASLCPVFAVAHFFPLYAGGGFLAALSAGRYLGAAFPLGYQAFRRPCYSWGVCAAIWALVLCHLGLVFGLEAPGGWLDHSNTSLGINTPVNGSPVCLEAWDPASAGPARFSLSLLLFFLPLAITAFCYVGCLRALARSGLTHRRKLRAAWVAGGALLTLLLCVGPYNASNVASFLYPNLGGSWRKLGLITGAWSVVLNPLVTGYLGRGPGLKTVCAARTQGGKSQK

Regarding `Cc1cc(C2=CCOCC2)cc(C)c1-c1ccc(F)c2c1CC[C@H]2Oc1ccc2c(c1)OC[C@H]2CC(=O)O` [Example 24, 2-((S)-6-((R)-4-(4-(3,6-dihydro-2H-pyran-4-yl)-2,6-dimethylphenyl)-7-fluoro-2,3-dihydro-1H-inden-1-yloxy)-2,3-dihydrobenzofuran-3-yl)acetic acid], the EC50 (in general, the concentration needed to bring the measured effect to its halfway point) at human GPR40 receptor [1] was determined as 3 nM. This lies in the single-digit nanomolar range. Same read-out and setting: next, `Cc1cc(OCCN2CCCC2=O)cc(C)c1-c1ccc(F)c2c1CC[C@H]2Oc1ccc2c(c1)OC[C@H]2CC(=O)O` [Example 23, 2-((S)-6-((R)-4-(2,6-Dimethyl-4-(2-(2-oxopyrrolidin-1-yl)ethoxy)phenyl)-7-fluoro-2,3-dihydro-1H-inden-1-yloxy)-2,3-dihydrobenzofuran-3-yl)acetic acid]: 10 nM; `COCC(C)(C)COc1cc(C)c(-c2ccc(F)c3c2CC[C@H]3Oc2ccc3c(c2)OC[C@H]3CC(=O)O)c(C)c1` [Example 16, 2-((S)-6-((R)-7-Fluoro-4-(4-(3-methoxy-2,2-dimethylpropoxy)-2,6-dimethylphenyl)-2,3-dihydro-1H-inden-1-yloxy)-2,3-dihydrobenzofuran-3-yl)acetic acid]: 5 nM; `CNC(=O)c1cc(C)c(-c2ccc(F)c3c2CC[C@H]3Oc2ccc3c(c2)OC[C@H]3CC(=O)O)c(C)c1` [Example 62, 2-((S)-6-((R)-4-(2,6-Dimethyl-4-(methylcarbamoyl)phenyl)-7-fluoro-2,3-dihydro-1H-inden-1-yloxy)-2,3-dihydrobenzofuran-3-yl)acetic acid]: 11 nM. For `Cc1cc(C(N)=O)cc(C)c1-c1ccc(F)c2c1CC[C@H]2Oc1ccc2c(c1)OC[C@H]2CC(=O)O` [Example 60, 2-((S)-6-((R)-4-(4-Carbamoyl-2,6-dimethylphenyl)-7-fluoro-2,3-dihydro-1H-inden-1-yloxy)-2,3-dihydrobenzofuran-3-yl)acetic acid], the concentration for a half-maximal effect (EC50) on human GPR40 receptor [1] was determined as 26 nM.

For the compound `Cc1cc(OC2CCOCC2)cc(C)c1-c1ccc(F)c2c1CC[C@H]2Oc1ccc2c(c1)OC[C@H]2CC(=O)O` [Example 7, 2-((S)-6-((R)-4-(2,6-Dimethyl-4-(tetrahydro-2H-pyran-4-yloxy)phenyl)-7-fluoro-2,3-dihydro-1H-inden-1-yloxy)-2,3-dihydrobenzofuran-3-yl)acetic acid], the EC50 at human GPR40 receptor [1] amounted to 6 nM. On the same count and under the same terms, next, `Cc1cc(OC2CCS(=O)(=O)CC2)cc(C)c1-c1ccc(F)c2c1CC[C@H]2Oc1ccc2c(c1)OC[C@H]2CC(=O)O` [Example 32, 2-((S)-6-((R)-4-(2,6-Dimethyl-4-(1,1-dioxo-tetrahydro-2H-thiopyran-4-yloxy)phenyl)-7-fluoro-2,3-dihydro-1H-inden-1-yloxy)-2,3-dihydrobenzofuran-3-yl)acetic acid]: 26 nM.

At human GPR40 receptor [2], `Cc1cc(OCC(C)(C)S(C)(=O)=O)cc(C)c1-c1ccc(F)c2c1CC[C@H]2Oc1ccc2c(c1)OC[C@H]2CC(=O)O` [Example 45, ((S)-6-{(R)-7-Fluoro-4-[4-(2-methanesulfonyl-2-methyl-propoxy)-2,6-dimethyl-phenyl]-indan-1-yloxy}-2,3-dihydro-benzofuran-3-yl)-acetic acid] returned an EC50 of 9 nM. Same read-out and setting: next, `Cc1cncc(-c2cc(C)c(-c3ccc(F)c4c3CC[C@H]4Oc3ccc4c(c3)OC[C@H]4CC(=O)O)c(C)c2)c1` [Example 111, {(S)-6-[(R)-4-(2,6-Dimethyl-4-(5-methyl-pyridin-3-yl)-phenyl)-7-fluoro-indan-1-yloxy]-2,3-dihydro-benzofuran-3-yl}-acetic acid]: 4 nM; `O=C(O)C[C@@H]1COc2cc(O[C@@H]3CCc4c(-c5cccnc5N5CCCOCC5)ccc(F)c43)ccc21` [Example 127, {(S)-6-[(R)-7-Fluoro-4-(2-[1,4]oxazepan-4-yl-pyridin-3-yl)-indan-1-yloxy]-2,3-dihydro-benzofuran-3-yl}-acetic acid]: 48 nM. Same read-out and setting: next, `Cc1cc(-c2nccs2)cc(C)c1-c1ccc(F)c2c1CC[C@H]2Oc1ccc2c(c1)OC[C@H]2CC(=O)O` [Example 132, {(S)-6-[(R)-4-(2,6-Dimethyl-4-thiazol-2-yl-phenyl)-7-fluoro-indan-1-yloxy]-2,3-dihydro-benzofuran-3-yl}-acetic acid]: 2 nM; `COc1cc(-c2cc(C)c(-c3ccc(F)c4c3CC[C@H]4Oc3ccc4c(c3)OC[C@H]4CC(=O)O)c(C)c2)ccn1` [Example 116, {(S)-6-[(R)-4-(2,6-Dimethyl-4-(2-methoxy-pyridin-4-yl)-phenyl)-7-fluoro-indan-1-yloxy]-2,3-dihydro-benzofuran-3-yl}-acetic acid]: 3 nM.

The compound `O=C(O)C[C@@H]1COc2cc(O[C@@H]3CCc4c(-c5cccnc5-c5ccccc5)ccc(F)c43)ccc21` [Example 106, {(S)-6-[(R)-7-Fluoro-4-(2-phenyl-pyridin-3-yl)-indan-1-yloxy]-2,3-dihydro-benzofuran-3-yl}-acetic acid] yielded a concentration for a half-maximal effect (EC50) on human GPR40 receptor [2] of 59 nM.

The compound `CC(C)(C)COc1ncccc1-c1ccc(F)c2c1CC[C@H]2Oc1ccc2c(c1)OC[C@H]2CC(=O)O` [Example 100] gave an EC50 on human GPR40 receptor [2] of 58 nM. `Cc1ccc(-c2cc(C)c(-c3ccc(F)c4c3CC[C@H]4Oc3ccc4c(c3)OC[C@H]4CC(=O)O)c(C)c2)nc1` [Example 143, {(S)-6-[(R)-4-(2,6-Dimethyl-4-(5-methyl-pyridin-2-yl)-phenyl)-7-fluoro-indan-1-yloxy]-2,3-dihydro-benzofuran-3-yl}-acetic acid] registered a 50% effective concentration (EC50) at human GPR40 receptor [2] of 3 nM. Against the preceding compound, the EC50 is about 19-fold lower. On the same count and under the same terms, next, `Cc1cc(OC[C@@H]2CCS(=O)(=O)C2)cc(C)c1-c1ccc(F)c2c1CC[C@H]2Oc1ccc2c(c1)OC[C@H]2CC(=O)O` (single isomer, unassigned) [Example 46]: 7 nM; `Cc1cc(OCC2(O)CCSCC2)cc(C)c1-c1ccc(F)c2c1CC[C@H]2Oc1ccc2c(c1)OC[C@H]2CC(=O)O` [Example 68, 2-((S)-6-((R)-7-Fluoro-4-(4-((4-hydroxytetrahydro-2H-thiopyran-4-yl)methoxy)-2,6-dimethylphenyl)-2,3-dihydro-1H-inden-1-yloxy)-2,3-dihydrobenzofuran-3-yl)acetic acid]: 10 nM. With `Cc1cc(-c2cnc(C3CC3)cn2)cc(C)c1-c1ccc(F)c2c1CC[C@H]2Oc1ccc2c(c1)OC[C@H]2CC(=O)O` [Example 123, {(S)-6-[(R)-4-(2,6-Dimethyl-4-(5-cyclopropyl-pyrazin-2-yl)-phenyl)-7-fluoro-indan-1-yloxy]-2,3-dihydro-benzofuran-3-yl}-acetic acid], the response at human GPR40 receptor [2] was half-maximal at 7 nM (EC50).

At human GPR40 receptor [2], `Cc1ccc(-c2cc(C)c(-c3ccc(F)c4c3CC[C@H]4Oc3ccc4c(c3)OC[C@H]4CC(=O)O)c(C)c2)cn1` [Example 117, {(S)-6-[(R)-4-(2,6-Dimethyl-4-(6-methyl-pyridin-3-yl)-phenyl)-7-fluoro-indan-1-yloxy]-2,3-dihydro-benzofuran-3-yl}-acetic acid] showed an EC50 of 2 nM. This EC50 is about 3.5-fold lower than that of the compound before.

Turning to `Cc1cc(-c2cc(C)c(-c3ccc(F)c4c3CC[C@H]4Oc3ccc4c(c3)OC[C@H]4CC(=O)O)c(C)c2)ccn1` [Example 107, {(S)-6-[(R)-4-(2,6-Dimethyl-4-(2-methyl-pyridin-4-yl)-phenyl)-7-fluoro-indan-1-yloxy]-2,3-dihydro-benzofuran-3-yl}-acetic acid], the EC50 at human GPR40 receptor [2] turned out to be 4 nM.

Consider `Cc1cc(OCC2CCCS(=O)(=O)C2)cc(C)c1-c1ccc(F)c2c1CC[C@H]2Oc1ccc2c(c1)OC[C@H]2CC(=O)O` (stereo partly drawn) [Example 51, ((S)-6-{(R)-4-[4-(1,1-Dioxo-hexahydro-1-thiopyran-3-ylmethoxy)-2,6-dimethyl-phenyl]-7-fluoro-indan-1-yloxy}-2,3-dihydro-benzofuran-3-yl)-acetic acid], for which a half-maximal effect on human GPR40 receptor [2] (EC50) was put at 7 nM. With `Cc1cc(OCCNS(C)(=O)=O)cc(C)c1-c1ccc(F)c2c1CC[C@H]2Oc1ccc2c(c1)OC[C@H]2CC(=O)O` [Example 71, 2-((S)-6-((R)-4-(2,6-Dimethyl-4-(2-(methylsulfonamido)ethoxy)phenyl)-7-fluoro-2,3-dihydro-1H-inden-1-yloxy)-2,3-dihydrobenzofuran-3-yl)acetic acid], the EC50 at human GPR40 receptor [2] turned out to be 28 nM.

On to `Cc1cc(-c2c(C)nn(C)c2C)cc(C)c1-c1ccc(F)c2c1CC[C@H]2Oc1ccc2c(c1)OC[C@H]2CC(=O)O` [Example 109, {(S)-6-[(R)-4-(2,6-Dimethyl-4-(1,3,5-trimethyl-pyrazol-4-yl)-phenyl)-7-fluoro-indan-1-yloxy]-2,3-dihydro-benzofuran-3-yl}-acetic acid], for which, at human GPR40 receptor [2], the response was half-maximal at 8 nM (EC50). On the same count and under the same terms, next, `Cc1cnc(-c2cc(C)c(-c3ccc(F)c4c3CC[C@H]4Oc3ccc4c(c3)OC[C@H]4CC(=O)O)c(C)c2)nc1` [Example 113, {(S)-6-[(R)-4-(2,6-Dimethyl-4-(5-methyl-pyrimidin-2-yl)-phenyl)-7-fluoro-indan-1-yloxy]-2,3-dihydro-benzofuran-3-yl}-acetic acid]: 1 nM.
